In publication PMC6825211 (Nature Communications, 2019):
“And” between values parts separate entries of the source, which are not always exact repeats. Equal entries are not always repeated. “Also recorded” adds a separate entry of the source.

Legend:
MEK1 = MEK1 (Homo sapiens, UniProt Q02750); assay: Nanosyn kinase profiling, mobility shift assay; type: biochemical
250 kinases = assay: Nanosyn panel of 250 biochemical kinase assays; settings: 3 µM, of 250 kinases
Experimental: inhibition was determined for each assay.

INS-1E cells = assay: Caspase-3 activation Nucview assay, TNFα/IFNγ with 33 mM glucose; type: cell-based, rat; settings: up to 6.7 µM neratinib
MST1 [1] = target: T1, MST1 (Rattus norvegicus, UniProt A0A8I6A0F8); assay: CETSA assay; type: cell-based; settings: 5 μM, 2 h, INS-1E, 55 °C
T1 construct: endogenous in cells; host or cells: INS-1E (rat beta-cell line)
Experimental: Thereafter, cells were pelleted at 200 g for 4 min and resuspended in PBS supplemented with phosphatase and protease inhibitor cocktail at the cell density of 3 Mill./100 µl. Each cell suspension was distributed into five 0.2-ml PCR tubes with 100 µl of cell suspension per tube. PCR tubes were heated at their designated temperature (43–55 °C) on a thermal cycler for 3 min, incubated at room temperature for 3 min, and snap-frozen in liquid nitrogen. Cell lysates were prepared by freezing–thawing the samples in liquid nitrogen twice, and soluble MST1 was detected by western blot analysis.

[2] = system: obese diabetic Lepr db/db mice; assay: db/db model: β-cell apoptosis (TUNEL); type: in vivo, mouse; settings: for TUNEL%/ mouse: dbdb mice
Source text: Data are representative of six mice per group (n = 6 for (a–f)). g–j Mice were killed at day 31. g β-cell mass (given as percentage of the whole pancreatic section from ten sections spanning the width of the pancreas; n = 5 mice/group) and quantitative analyses from triple stainings for (h) TUNEL, (i) Ki67, (j) pHH3, and (k) nuclear PDX1 expression, insulin, and DAPI expressed as percentage of TUNEL-, Ki67-, pHH3-, or nuclear PDX1-positive β-cells ± SEM. An average number of 13667 (h), 5937 (i), 7108 (j), or 4330 (k) β-cells were counted from n = 3–5 (h, i, k) or n = 5–6 (j) mice/group.
Mouse pancreases were dissected and fixed in 4% formaldehyde at 4 °C for 12 h before embedding in paraffin[62]. Two-four-micrometer sections were deparaffinized, rehydrated, and incubated overnight at 4 °C with anti-PDX-1 (Abcam; #47267), anti-Glut2 (Chemicon; #07-1402), anti-Ki67 (Dako; #M7249), anti-phospho-Histone H3 (Ser10; Merck #06-570), and anti-NKX6.1 (DSHB, University of Iowa #F55A12[66]) in combination with TSA (Invitrogen #T30955), or for 2 h at room temperature with anti-insulin (Dako; A0546) antibodies (all at a dilution of 1:100, except anti-PDX-1, which was diluted 1:400) followed by fluorescein isothiocyanate (FITC)- or Cy3-conjugated secondary antibodies (Jackson ImmunoResearch Laboratories, West Grove, PA). Slides were mounted with Vectashield with 4′6-diamidino-2-phenylindole (DAPI) (Vector Labs). β-cell apoptosis was analyzed by the terminal deoxynucleotidyl transferase-mediated dUTP nick-end labeling (TUNEL) technique according to the manufacturer’s instructions (In Situ Cell Death Detection Kit, TMR red; Roche) and double stained for insulin. Fluorescence was analyzed by using a Nikon MEA53200 (Nikon GmbH, Dusseldorf, Germany) microscope, and images were acquired by using NIS-Elements software (Nikon).

[3] = system: isolated islets from WT C57Bl/6 mice; assay: β-cell apoptosis (TUNEL), WT islets, IL-1β/IFNγ 72 h, neratinib added for last 24 h; type: cell-based, mouse; settings: for TUNEL%: Cytokines+Nera
MST1 [4] = target: T2, MST1 (Homo sapiens, UniProt Q13043); assay: biochemical
T2 sequence (Q13043 1-487): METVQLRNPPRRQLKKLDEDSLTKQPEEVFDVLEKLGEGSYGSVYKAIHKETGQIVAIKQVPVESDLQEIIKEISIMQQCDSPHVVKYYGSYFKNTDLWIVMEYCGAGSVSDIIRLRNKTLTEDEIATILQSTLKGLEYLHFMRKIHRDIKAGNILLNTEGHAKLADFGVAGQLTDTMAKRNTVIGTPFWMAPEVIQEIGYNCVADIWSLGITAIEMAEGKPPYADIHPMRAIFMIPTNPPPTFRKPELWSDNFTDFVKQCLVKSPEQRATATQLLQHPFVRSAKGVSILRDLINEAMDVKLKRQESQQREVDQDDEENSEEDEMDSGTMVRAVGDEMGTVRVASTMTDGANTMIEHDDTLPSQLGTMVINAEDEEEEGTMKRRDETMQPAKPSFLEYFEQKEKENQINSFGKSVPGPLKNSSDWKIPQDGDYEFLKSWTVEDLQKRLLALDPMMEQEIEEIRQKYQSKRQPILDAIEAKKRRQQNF

AMP-A1B1G1 = AMP-A1B1G1 (Homo sapiens, UniProt Q13131); assay: Nanosyn kinase profiling, mobility shift assay; settings: read-out: % inhibition by neratinib
AMP-A1B1G1, sequence (Q13131 whole entry): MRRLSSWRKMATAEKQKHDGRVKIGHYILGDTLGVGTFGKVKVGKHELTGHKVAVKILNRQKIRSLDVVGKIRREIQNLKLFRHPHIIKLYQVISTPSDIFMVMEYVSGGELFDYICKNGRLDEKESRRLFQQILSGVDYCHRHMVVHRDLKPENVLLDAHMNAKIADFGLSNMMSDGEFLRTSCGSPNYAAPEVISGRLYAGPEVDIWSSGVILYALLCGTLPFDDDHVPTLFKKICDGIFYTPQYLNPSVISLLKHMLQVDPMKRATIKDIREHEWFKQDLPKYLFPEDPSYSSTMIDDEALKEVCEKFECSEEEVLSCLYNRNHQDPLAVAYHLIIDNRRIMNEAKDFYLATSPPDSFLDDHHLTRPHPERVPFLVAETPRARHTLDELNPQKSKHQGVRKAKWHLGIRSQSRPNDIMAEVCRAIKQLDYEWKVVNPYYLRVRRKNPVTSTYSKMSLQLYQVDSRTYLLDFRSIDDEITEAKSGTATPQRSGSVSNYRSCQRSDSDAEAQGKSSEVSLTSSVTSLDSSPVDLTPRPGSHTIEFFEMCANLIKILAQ
AMP-A1B1G1, sequence (Q9Y478 whole entry partner): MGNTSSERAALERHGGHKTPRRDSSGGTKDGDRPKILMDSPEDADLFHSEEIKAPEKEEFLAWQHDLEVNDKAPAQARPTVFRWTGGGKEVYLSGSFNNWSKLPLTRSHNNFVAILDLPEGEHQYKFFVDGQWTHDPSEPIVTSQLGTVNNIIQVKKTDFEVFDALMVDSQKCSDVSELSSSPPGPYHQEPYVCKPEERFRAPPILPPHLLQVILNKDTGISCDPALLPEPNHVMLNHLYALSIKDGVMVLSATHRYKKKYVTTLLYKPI
AMP-A1B1G1, sequence (P54619 whole entry partner): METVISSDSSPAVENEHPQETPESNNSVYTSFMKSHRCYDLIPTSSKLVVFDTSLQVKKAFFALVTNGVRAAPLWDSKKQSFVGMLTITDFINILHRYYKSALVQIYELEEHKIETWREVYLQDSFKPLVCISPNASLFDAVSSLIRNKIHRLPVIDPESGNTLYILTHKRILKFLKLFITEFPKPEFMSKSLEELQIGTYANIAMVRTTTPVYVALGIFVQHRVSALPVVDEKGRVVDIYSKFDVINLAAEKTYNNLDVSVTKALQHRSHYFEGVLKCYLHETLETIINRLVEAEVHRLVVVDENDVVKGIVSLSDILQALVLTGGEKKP

DAPK1 = DAPK1 (Homo sapiens, UniProt P53355); assay: Nanosyn kinase profiling, mobility shift assay; settings: read-out: % inhibition by neratinib
EPH-A2 = EPH-A2 (Homo sapiens, UniProt P29317); assay: Nanosyn kinase profiling, mobility shift assay; settings: read-out: % inhibition by neratinib
EPH-A2, sequence (P29317 24-976): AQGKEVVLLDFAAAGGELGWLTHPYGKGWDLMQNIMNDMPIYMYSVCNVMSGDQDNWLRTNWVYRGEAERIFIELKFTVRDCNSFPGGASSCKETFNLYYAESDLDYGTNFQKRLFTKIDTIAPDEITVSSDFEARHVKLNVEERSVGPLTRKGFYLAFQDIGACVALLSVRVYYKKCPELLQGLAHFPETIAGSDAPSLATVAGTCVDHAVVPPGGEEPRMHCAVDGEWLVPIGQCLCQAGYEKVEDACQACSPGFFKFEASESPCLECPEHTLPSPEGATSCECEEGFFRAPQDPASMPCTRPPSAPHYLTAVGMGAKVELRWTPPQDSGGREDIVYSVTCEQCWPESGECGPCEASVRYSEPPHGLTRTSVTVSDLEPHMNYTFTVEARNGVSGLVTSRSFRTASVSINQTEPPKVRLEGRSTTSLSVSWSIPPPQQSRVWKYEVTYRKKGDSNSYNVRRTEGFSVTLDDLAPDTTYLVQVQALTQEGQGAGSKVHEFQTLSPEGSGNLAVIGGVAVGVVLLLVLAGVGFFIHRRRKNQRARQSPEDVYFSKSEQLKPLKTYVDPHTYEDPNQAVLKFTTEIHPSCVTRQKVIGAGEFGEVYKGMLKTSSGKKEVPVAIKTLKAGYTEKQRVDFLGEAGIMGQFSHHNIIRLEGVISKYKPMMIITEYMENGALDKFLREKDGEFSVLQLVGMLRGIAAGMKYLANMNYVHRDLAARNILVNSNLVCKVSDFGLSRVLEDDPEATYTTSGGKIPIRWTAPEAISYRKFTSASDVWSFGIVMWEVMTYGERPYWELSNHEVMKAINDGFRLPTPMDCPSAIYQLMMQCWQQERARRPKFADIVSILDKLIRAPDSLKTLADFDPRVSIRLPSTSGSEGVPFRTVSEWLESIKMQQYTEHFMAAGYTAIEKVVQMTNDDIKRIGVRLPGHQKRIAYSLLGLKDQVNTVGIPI

FGFR1 = FGFR1 (Homo sapiens, UniProt P11362); assay: Nanosyn kinase profiling, mobility shift assay; settings: read-out: % inhibition by neratinib
FGFR1, sequence (P11362 22-822): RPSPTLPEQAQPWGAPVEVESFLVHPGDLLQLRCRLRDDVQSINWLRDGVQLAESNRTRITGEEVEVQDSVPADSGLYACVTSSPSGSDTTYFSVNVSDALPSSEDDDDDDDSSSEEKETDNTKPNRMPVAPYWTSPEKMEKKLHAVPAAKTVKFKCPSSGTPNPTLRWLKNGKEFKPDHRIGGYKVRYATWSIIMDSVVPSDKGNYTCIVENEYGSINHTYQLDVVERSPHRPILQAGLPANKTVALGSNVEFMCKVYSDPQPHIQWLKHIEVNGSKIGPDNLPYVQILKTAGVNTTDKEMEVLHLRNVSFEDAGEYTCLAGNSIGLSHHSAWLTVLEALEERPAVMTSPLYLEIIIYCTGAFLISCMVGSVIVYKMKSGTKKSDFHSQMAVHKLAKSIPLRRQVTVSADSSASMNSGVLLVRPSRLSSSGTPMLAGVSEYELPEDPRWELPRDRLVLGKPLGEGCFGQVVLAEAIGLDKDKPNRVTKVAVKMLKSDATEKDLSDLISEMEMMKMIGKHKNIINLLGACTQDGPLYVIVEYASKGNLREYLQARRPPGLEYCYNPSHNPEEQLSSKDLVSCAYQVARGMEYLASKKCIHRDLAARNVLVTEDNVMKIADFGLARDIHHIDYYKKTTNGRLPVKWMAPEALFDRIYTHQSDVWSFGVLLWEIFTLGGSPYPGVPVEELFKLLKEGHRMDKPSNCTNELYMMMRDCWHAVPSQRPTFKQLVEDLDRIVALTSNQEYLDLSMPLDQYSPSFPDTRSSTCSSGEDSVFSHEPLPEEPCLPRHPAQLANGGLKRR

IRAK4 = IRAK4 (Homo sapiens, UniProt Q9NWZ3); assay: Nanosyn kinase profiling, mobility shift assay; settings: read-out: % inhibition by neratinib
IRAK4, sequence (Q9NWZ3 whole entry): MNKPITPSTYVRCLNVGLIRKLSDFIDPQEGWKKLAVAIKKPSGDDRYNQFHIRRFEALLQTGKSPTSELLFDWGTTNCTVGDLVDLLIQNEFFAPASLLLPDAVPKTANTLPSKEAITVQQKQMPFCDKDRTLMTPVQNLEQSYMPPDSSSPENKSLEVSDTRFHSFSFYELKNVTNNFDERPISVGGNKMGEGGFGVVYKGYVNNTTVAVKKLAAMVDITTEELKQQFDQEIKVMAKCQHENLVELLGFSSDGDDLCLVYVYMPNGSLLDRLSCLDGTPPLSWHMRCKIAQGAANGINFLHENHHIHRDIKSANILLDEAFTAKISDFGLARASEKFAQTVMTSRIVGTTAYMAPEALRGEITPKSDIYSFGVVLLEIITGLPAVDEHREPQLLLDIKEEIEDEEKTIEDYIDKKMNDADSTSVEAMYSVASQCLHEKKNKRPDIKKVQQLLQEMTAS

ITK = ITK (Homo sapiens, UniProt Q08881); assay: Nanosyn kinase profiling, mobility shift assay; settings: read-out: % inhibition by neratinib
ITK, sequence (Q08881 whole entry): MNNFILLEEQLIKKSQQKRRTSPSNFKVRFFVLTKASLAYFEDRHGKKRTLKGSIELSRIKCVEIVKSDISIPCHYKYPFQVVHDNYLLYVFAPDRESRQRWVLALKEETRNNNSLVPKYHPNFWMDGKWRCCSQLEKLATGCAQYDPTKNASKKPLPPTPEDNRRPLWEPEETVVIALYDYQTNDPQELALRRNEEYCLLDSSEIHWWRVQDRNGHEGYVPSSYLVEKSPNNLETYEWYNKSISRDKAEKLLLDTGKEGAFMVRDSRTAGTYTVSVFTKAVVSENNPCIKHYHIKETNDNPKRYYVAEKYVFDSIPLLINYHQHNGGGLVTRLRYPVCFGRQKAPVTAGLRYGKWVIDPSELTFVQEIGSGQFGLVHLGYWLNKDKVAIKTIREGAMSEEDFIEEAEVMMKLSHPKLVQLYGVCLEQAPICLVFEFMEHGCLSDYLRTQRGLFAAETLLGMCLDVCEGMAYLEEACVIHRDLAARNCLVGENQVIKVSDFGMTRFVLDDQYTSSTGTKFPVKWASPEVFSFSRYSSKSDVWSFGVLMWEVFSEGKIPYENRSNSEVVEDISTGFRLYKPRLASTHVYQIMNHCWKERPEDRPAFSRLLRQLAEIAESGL

JAK2 = JAK2 (Homo sapiens, UniProt O60674); assay: Nanosyn kinase profiling, mobility shift assay; settings: read-out: % inhibition by neratinib
NEK2 = NEK2 (Homo sapiens, UniProt P51955); assay: Nanosyn kinase profiling, mobility shift assay; settings: read-out: % inhibition by neratinib
NEK2, sequence (P51955 whole entry): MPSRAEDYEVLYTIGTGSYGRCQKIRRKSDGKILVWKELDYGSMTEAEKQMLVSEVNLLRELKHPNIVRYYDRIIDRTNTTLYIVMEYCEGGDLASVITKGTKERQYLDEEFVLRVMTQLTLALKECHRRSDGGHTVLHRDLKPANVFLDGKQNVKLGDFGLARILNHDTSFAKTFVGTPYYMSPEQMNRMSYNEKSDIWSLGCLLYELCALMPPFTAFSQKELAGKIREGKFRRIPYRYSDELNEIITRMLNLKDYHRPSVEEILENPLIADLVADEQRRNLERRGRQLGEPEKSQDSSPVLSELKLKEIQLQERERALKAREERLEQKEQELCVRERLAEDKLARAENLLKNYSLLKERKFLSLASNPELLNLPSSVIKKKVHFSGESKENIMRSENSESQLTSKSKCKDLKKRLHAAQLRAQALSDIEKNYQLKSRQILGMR

SGK1 = SGK1 (Homo sapiens, UniProt O00141); assay: Nanosyn kinase profiling, mobility shift assay; settings: read-out: % inhibition by neratinib
MST1–LATS2 signaling = assay: LATS-BS in vitro luciferase assay (MST1/LATS2 overexpression); settings: for Firefly/Renilla x1000 (MEAN): L2/Mst1 overexpression + 10 μM compound
Source text: Therefore a LATS-BS construct has been generated with fusion of YAP fragment and 14-3-3 with N-terminal and C-terminal firefly luciferase fragments (N-luc and C-luc), respectively that assesses LATS kinase activity by measuring the interaction between pS127-YAP and 14-3-3[35] in a MST1–LATS2-phosphorylation-dependent manner (Fig. 4a).
As internal transfection control, pRL-Renilla luciferase control reporter vector (Promega) was co-transfected into each sample. […] Luciferase signal was calculated based on the ratio of luciferase activity of LATS-BS to control reporter vector.

human islets = assay: β-cell apoptosis (TUNEL/insulin) after Ad-MST1 overexpression; settings: for mean TUNEL/isolation/%: MST1 OE + NERA 10 μM 48 h
Experimental: Isolated human islets or INS-1E cells were infected with adenovirus carrying LacZ as control or MST1 or LATS2 (all Vector Biolabs), at a multiplicity of infection of 100 (human islets) or 20 (INS-1E) for 4 h[11].

[5] = system: isolated islets from WT mice; assay: β-cell apoptosis (TUNEL/insulin) under diabetogenic conditions, WT islets
[6] = read-out: % inhibition by neratinib

MEK1, sequence (Q02750 whole entry, species assumed): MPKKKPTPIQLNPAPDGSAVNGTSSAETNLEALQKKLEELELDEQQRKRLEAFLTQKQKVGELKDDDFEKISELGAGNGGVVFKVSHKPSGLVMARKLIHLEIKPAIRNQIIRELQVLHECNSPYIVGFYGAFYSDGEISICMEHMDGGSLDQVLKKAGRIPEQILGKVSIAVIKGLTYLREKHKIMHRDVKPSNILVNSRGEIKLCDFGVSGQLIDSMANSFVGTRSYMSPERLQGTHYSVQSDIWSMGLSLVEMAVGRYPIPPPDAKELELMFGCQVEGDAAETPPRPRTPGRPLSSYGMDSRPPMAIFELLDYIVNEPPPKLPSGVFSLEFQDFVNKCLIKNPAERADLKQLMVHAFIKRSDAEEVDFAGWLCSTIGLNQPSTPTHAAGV

CCOc1cc2ncc(C#N)c(Nc3ccc(OCc4ccccn4)c(Cl)c3)c2cc1NC(=O)/C=C/CN(C)C [neratinib]
IC50 (MEK1; 12 points dose response): 1.49 µM
inhibition at 10 µM (MEK1; [6]): 73%
number of kinases with 50% of inhibition (250 kinases): 59
caspase-3 activation induced by TNFα/IFNγ and high glucose (INS-1E cells): largely inhibited
thermal stabilization of MST1 in intact cells (MST1 [1]): MST1 stabilization at 55 °C
β-cell apoptosis ([2]; db/db, day 31): significantly reduced β-cell apoptosis
TUNEL%/ mouse ([2]; Mean): 0.5462%
TUNEL%/ mouse ([2]; individual mice): 0.6553% and 0.4112% and 0.66% and 0.4585%
TUNEL% ([3]; MEAN): 0.4111%
TUNEL% ([3]; individual replicates): 0.4072% and 0.3399% and 0.4861%
β-cell survival after cytokine-induced apoptosis ([3]; IL-1β/IFNγ 48 h, then 10 μM neratinib another 24 h): fully restored β-cell survival
inhibition at 10 µM (MST1 [4]; [6]): 98%
inhibition at 3 µM (MST1 [4]; read-out: MST1 inhibition): 97%
inhibition at 10 µM (AMP-A1B1G1): 11%
inhibition at 10 µM (DAPK1): 4%
inhibition at 10 µM (EPH-A2): 51%
inhibition at 10 µM (FGFR1): 26%
inhibition at 10 µM (IRAK4): 17%
inhibition at 10 µM (ITK): 88%
inhibition at 10 µM (JAK2): 18%
inhibition at 10 µM (NEK2): 68%
inhibition at 10 µM (SGK1): 28%
MST1/LATS2-induced luciferase activity (LATS-BS) (MST1–LATS2 signaling; 10 μM, last 24 h): strongly inhibited
Firefly/Renilla x1000 (MEAN) (MST1–LATS2 signaling; mean of six dishes): 10.9109
Firefly/Renilla x1000 (MEAN) (MST1–LATS2 signaling; single culture dishes): 12.1618
β-cell apoptosis induced by MST1 overexpression (human islets; 10 μM, 48 h): significantly blocked; also recorded: almost fully blocked
mean TUNEL/isolation/% (human islets; mean, LacZ = 100): 126.263%
mean TUNEL/isolation/% (human islets; single isolations, LacZ mean = 100): 100% and 145.455% and 133.333%
cytokine- and glucolipotoxicity-induced apoptosis in WT islets ([5]; 10 μM, 72 h): reduced cytokine- and glucolipotoxicity-induced apoptosis
mean TUNEL/isolation/% ([5]; WT HG/Pal Nera 10 μM 72 h, mean): 370.621%
mean TUNEL/isolation/% ([5]; WT HG/Pal Nera 10 μM 72 h, single isolations, WT untreated = 100): 424.349% and 323.811% and 387.381% and 346.941%
mean TUNEL/isolation/% ([5]; WT ILIF Nera 10 μM 72 h, mean): 814.399%
